Measured values: paper PMC7305224, “Mutually stabilizing interactions between proto-peptides and RNA” (Nature Communications, 2020)
Non-standard residues stand in square brackets, D forms with d. Residues, ends and D or L forms follow the SMILES beside them. *: point of attachment. 5FAM = O=C1OC2(c3ccc(O)cc3Oc3cc(O)ccc32)c2ccc(C(=O)*)cc21; Dab = NCC[C@H](N)C(=O)O; Lac = C[C@H](O)C(=O)O

Key:
[1] = tested on: 5′-Cy5-U20 RNA; test: Gel mobility (band) shift assay; format: binding; details: 66.6–530 µM FAM-labeled sequence, 5′-Cy5-U20 RNA 26.6 µM, MES-TEA buffer pH 6, 12% native polyacrylamide gel
Protocol: The gel was cropped at the edges for clarity. […] Spectra were recorded in 100 mM MES-TEA buffer (pH 6). d Plot of the change in CD signal at 266 nm as a function of increasing concentrations of depsipeptide 14. Red and blue colors of the filled circles correspond to curves of the same color in panel (c). […] […] An addition of 1.25 µL of glycerol brought the sample volume to a total of 3.75 µL. Samples were loaded onto a 12% native polyacrylamide gel, run at 100 V for 90 min, and imaged using Azure Biosystems c430.

[2] = tested on: RNA duplex 1 (5′-rCrGrCrUrArArArUrCrG-3′ & 5′-rCrGrArUrUrUrArGrCrG-3′); test: RNA thermal denaturation (Tm) by UV hyperchromicity at 260 nm with synthetic peptides/depsipeptides, RNA duplex 1; format: binding; details: for RNA duplex 1 Tm: observed Tm, peptide/depsipeptide 80 mM (so in the source), pH 7.0, mean ± SD; for RNA duplex 1 ΔTm: peptide/depsipeptide 80 μM, pH 7.0, 10 mM phosphate, 100 mM NaCl

Row | SMILES | band shift of RNA in gel mobility shift assay [1] | RNA duplex 1 Tm [2] [°C] | RNA duplex 1 ΔTm [2] [°C]
1 | C[C@H](NC(=O)CNC(=O)c1ccc2c(c1)C(=O)OC21c2ccc(O)cc2Oc2cc(O)ccc21)C(=O)N[C@@H](CCN)C(=O)N[C@@H](CCCCN)C(=O)N[C@@H](C)C(=O)N[C@@H](CCN)C(=O)N[C@@H](CCCCN)C(=O)N[C@@H](C)C(=O)N[C@@H](CCN)C(=O)N[C@@H](CCCCN)C(=O)O[C@@H](C)C(=O)N[C@@H](CCN)C(=O)N[C@@H](CCCCN)C(=O)N[C@@H](C)C(=O)N[C@@H](CCN)C(=O)N[C@@H](CCCCN)C(N)=O [compound 13, 5-FAM-Gly-Ala-Dab-Lys-Ala-Dab-Lys-Ala-Dab-Lys-lac-Dab-Lys-Ala-Dab-Lys NH2] (5FAM-GA[Dab]KA[Dab]KA[Dab]K[Lac][Dab]KA[Dab]K-NH2) | concentration-dependent band shift | 56.0 ± 0.8 | 12.2
2 | C[C@H](NC(=O)CNC(=O)c1ccc2c(c1)C(=O)OC21c2ccc(O)cc2Oc2cc(O)ccc21)C(=O)N[C@@H](CCN)C(=O)N[C@@H](CCCCN)C(=O)N[C@@H](C)C(=O)N[C@@H](CCN)C(=O)N[C@@H](CCCCN)C(=O)N[C@@H](C)C(=O)N[C@@H](CCN)C(=O)N[C@@H](CCCCN)C(=O)N[C@@H](C)C(=O)N[C@@H](CCN)C(=O)N[C@@H](CCCCN)C(=O)N[C@@H](C)C(=O)N[C@@H](CCN)C(=O)N[C@@H](CCCCN)C(N)=O [compound 12, 5-FAM-Gly-Ala-Dab-Lys-Ala-Dab-Lys-Ala-Dab-Lys-Ala-Dab-Lys-Ala-Dab-Lys NH2] (5FAM-GA[Dab]KA[Dab]KA[Dab]KA[Dab]KA[Dab]K-NH2) | concentration-dependent band shift | 54.4 ± 0.6 | 10.6
